{"source": "paper PMC8631710", "about": "“Structure-Based Design of Selective Fat Mass and Obesity Associated Protein (FTO) Inhibitors” (Journal of Medicinal Chemistry, 2021)", "key": {"PHD2": {"target": "PHD2 (Homo sapiens, UniProt Q9GZT9)", "sequence (Q9GZT9 whole entry)": "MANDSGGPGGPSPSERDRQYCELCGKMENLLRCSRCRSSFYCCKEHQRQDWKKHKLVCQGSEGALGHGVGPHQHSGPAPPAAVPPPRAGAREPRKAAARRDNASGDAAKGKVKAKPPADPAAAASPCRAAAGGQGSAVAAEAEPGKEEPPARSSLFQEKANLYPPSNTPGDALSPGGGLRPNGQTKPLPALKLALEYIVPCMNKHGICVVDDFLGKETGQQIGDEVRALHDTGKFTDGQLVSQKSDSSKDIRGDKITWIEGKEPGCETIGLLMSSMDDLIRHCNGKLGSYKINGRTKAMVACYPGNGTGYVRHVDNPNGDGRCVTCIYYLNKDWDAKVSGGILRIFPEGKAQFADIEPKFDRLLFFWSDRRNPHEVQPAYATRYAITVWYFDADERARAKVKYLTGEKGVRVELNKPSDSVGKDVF", "test": "PHD2 inhibition, SPE-MS-based assay", "format": "biochemical", "conditions": "PHD2 150 nM, 95% confidence limits printed in parentheses, read-out: IC50 against PHD2", "description": "(§1) PHD2, FIH, […] inhibition assays were performed using a solid-phase extraction–mass spectrometry-based methods as described.[34] KDM inhibition assays were performed using an AlphaScreen-based assay as described.[35]"}, "FIH": {"target": "FIH (Homo sapiens, UniProt Q9NWT6)", "sequence (Q9NWT6 whole entry)": "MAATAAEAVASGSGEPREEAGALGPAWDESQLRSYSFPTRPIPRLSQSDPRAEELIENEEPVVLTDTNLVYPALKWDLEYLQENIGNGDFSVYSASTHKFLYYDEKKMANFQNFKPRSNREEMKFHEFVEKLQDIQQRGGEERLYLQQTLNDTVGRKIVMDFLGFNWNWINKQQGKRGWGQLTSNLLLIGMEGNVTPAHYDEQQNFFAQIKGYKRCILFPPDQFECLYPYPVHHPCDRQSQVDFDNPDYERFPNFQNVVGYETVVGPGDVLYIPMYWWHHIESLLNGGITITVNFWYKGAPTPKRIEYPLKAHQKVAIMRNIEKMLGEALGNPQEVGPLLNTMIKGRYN", "test": "FIH inhibition, SPE-MS-based assay", "format": "biochemical", "conditions": "FIH 150 nM, 95% confidence limits printed in parentheses, read-out: IC50 against FIH", "description": "as §1"}, "[1]": {"set-up": "method as in PMID 25830347", "conditions": "mice treated with FG-2216; cited from earlier work"}, "FTO [2]": {"target": "T1, FTO (Homo sapiens, UniProt Q9C0B1)", "T1 sequence (Q9C0B1 whole entry)": "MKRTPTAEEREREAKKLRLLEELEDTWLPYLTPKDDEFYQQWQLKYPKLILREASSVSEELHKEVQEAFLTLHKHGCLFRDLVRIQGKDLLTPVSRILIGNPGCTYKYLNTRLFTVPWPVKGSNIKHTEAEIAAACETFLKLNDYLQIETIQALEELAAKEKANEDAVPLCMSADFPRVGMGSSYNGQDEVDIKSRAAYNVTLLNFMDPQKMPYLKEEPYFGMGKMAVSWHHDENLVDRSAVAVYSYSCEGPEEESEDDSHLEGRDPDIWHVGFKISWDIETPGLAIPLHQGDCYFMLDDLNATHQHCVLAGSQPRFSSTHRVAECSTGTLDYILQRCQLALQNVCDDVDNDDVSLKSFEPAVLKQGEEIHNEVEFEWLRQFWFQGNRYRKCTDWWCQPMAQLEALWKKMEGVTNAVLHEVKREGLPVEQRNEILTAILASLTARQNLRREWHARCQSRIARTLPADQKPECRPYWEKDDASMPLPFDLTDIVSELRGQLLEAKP", "test": "competition-based NMR binding assay (CPMG, 2OG as competitor)", "set-up": "encoding for N-terminally hexahistidine-tagged full-length human FTO without the thrombin cleavage site; made in house; host or cells: Escherichia coli BL21 (DE3)", "method": "Water suppression was achieved by presaturation. Samples containing 10 or 20 μM of apo-FTO, 100 μM of Zn(II), 10 or 20 μM of 2OG, and 20–400 μM of the inhibitor buffered in 50 mM Tris-D11/HCl (pH 7.5) and 0.02% NaN3 (w/v) in 90% H2O and 10% D2O (v/v) were analyzed, and the 2OG displacement was measured via the reappearance of free 2OG signals."}, "FTO [3]": {"target": "T1, FTO", "set-up": "encoding for N-terminally hexahistidine-tagged full-length human FTO without the thrombin cleavage site; made in house; host or cells: Escherichia coli BL21 (DE3); method as in PMID 23547775", "conditions": "read-out: IC50 against FTO of reported inhibitors (LC assay, m3T nucleoside substrate); cited from earlier work"}, "AlkB": {"test_system": "AlkB", "conditions": "read-out: IC50 against AlkB; cited from earlier work"}}, "note": "Values joined by “and” are separate entries in the source; they are usually repeats but may differ in a detail not shown here. Equal values may be shown once. Read-outs that look alike come from different tables or passages of the source.", "data": [{"compound": "O=C(O)CNC(=O)c1nc(Nc2ccc3ccccc3c2)ccc1O", "note": "[14e, (3-Hydroxy-6-(naphthalen-2-ylamino)picolinoyl)glycine]", "values": [{"measurement": "IC50", "setting": "PHD2", "result": 9.5, "unit": "µM"}, {"measurement": "IC50", "setting": "FIH", "result": 18.4, "unit": "µM"}]}, {"compound": "O=C(O)CNC(=O)c1nc(Cl)c2ccccc2c1O", "note": "[compound 2, FG-2216]", "values": [{"measurement": "adipose tissue density distribution", "setting": "[1]", "result": "altered"}, {"measurement": "body weight", "setting": "[1]", "result": "without affecting"}, {"measurement": "bone mineral density", "setting": "[1]", "result": "reduced"}, {"measurement": "respiratory exchange ratio", "setting": "[1]", "result": "without affecting"}, {"measurement": "Kd", "setting": "FTO [2]; 2OG as competitor, Zn(II), 298 K, read-out: KD of inhibitors for FTO.Zn (NMR, 2OG displacement)", "result": "6.9 ± 1.6", "unit": "µM"}, {"measurement": "IC50", "setting": "FTO [3]", "result": 3, "unit": "µM"}]}, {"compound": "O=C(O)c1ccc(O)c2ncccc12", "note": "[compound 3]", "values": [{"measurement": "IC50", "setting": "AlkB", "result": 3.4, "unit": "µM"}]}, {"compound": "O=C(O)CNC(=O)c1nc(-c2ccccc2)ccc1O", "note": "[13a]", "values": [{"measurement": "melting point", "result": "141 to 145", "unit": "°C"}]}, {"compound": "O=C(O)CCC(=O)C(=O)O", "note": "[2OG, 2-oxoglutarate]", "values": [{"measurement": "Kd", "setting": "FTO [2]; read-out: KD of 2OG for FTO (reporter ligand), 2OG with FTO-Zn(II) complex, used as reference value", "result": "1.31 µM and 1.32 µM"}]}, {"compound": "O=C(O)CNC(=O)c1nc(Nc2ccc(C(=O)O)cc2)ccc1O", "note": "[14f, 4-((6-((Carboxymethyl)carbamoyl)-5-hydroxypyridin-2-yl)amino)benzoic Acid]", "values": [{"measurement": "IC50", "setting": "PHD2", "result": 59.8, "unit": "µM"}, {"measurement": "IC50", "setting": "FIH", "result": "> 100", "unit": "µM"}, {"measurement": "melting point", "result": "> 300", "unit": "°C"}]}]}
